The values below come from publication PMC8018184, “Evaluation of the Pharmacophoric Role of the O–O Bond in Synthetic Antileishmanial Compounds: Comparison between 1,2-Dioxanes and Tetrahydropyrans” (Journal of Medicinal Chemistry, 2020).

Data set [1] has as its system amastigotes of L. donovani. Further details: method as in PMID 30908481. To be noted: cited from earlier work.
Data set [2] deals with L. donovani promastigotes (MHOM/NP/02/BPK282/0cl4). Description: Promastigote growth inhibition assay (alamarBlue). The format is cell-based, Leishmania donovani. As to conditions: for IC50: Leishmania donovani, 72 h, alamarBlue, HOMEM 20% FBS, compounds as racemates, read-out: IC50 (concentration causing 50% growth inhibition) against promastigotes of L. donovani; for Selectivity index (SI) = CC50/IC50: Vero CC50 / IC50 on promastigotes. On the procedure: The bioactivity of the new tetrahydropyrans 3 was initially evaluated against the extracellular promastigote forms of L. donovani (MHOM/NP/02/BPK282/0cl4) as the reference strain, indicative of the leishmaniasis in the Old World. The results were expressed as IC50, i.e., the concentration of the product required to inhibit the parasite growth by 50%. When a compound could inhibit the promastigote growth, its cytotoxicity was also evaluated on Vero cells (Table 1) and on THP-1 cells (see the Supporting Information, Table S3) and the corresponding selectivity indexes (SIs) were calculated. The performance of each tetrahydropyran 3 was compared with that of the corresponding endoperoxide 2 (Table 1).
Promastigotes of a L. donovani reference strain (MHOM/NP/02/BPK282/0cl4) were maintained at 26 °C in a liquid custom-made medium, HOMEM Cat. no: 1140-082 (Gibco Thermo Fisher Scientific Inc., Waltham, USA), complete composition: S-MEM (Eagle) 1 × 1 liter pack, glucose (1–2 g), sodium bicarbonate (0.3 g), sodium pyruvate (0.11 g), p-aminobenzoic acid (1 mg), biotin (0.1 mg), HEPES (4.77–5.96 g), MEM amino acids (10 mL), MEM nonessential amino acids (10 mL), pH 7.5–7.6, supplemented with 20% fetal bovine serum (FBS, EuroClone SpA, Milan, Italy)[123] and 1% penicillin–streptomycin (EuroClone SpA).
To evaluate the efficacy of the compounds on the extracellular forms of L. donovani, promastigotes in their late log/stationary phase were seeded with the complete HOMEM medium at 10^6 cells mL^–1 in 96-well plates and incubated with tested compounds at a range concentration of 600–1.6 μM in a 26 °C incubator for 72 h. The antileishmanial drug amphotericin B was used as the positive control, and untreated promastigotes were the negative control. Each experiment was performed in duplicate. Stock solution of the compounds was 8 mM in DMSO. […] The alamarBlue assay includes a colorimetric growth indicator based on detection of metabolic activity. Specifically, the system incorporates an oxidation–reduction (REDOX) indicator that changes color in response to chemical reduction of the growth medium resulting from cell growth. The method monitors the reducing environment of proliferating cells; the cell-permeable resazurin is added (nonfluorescent form, blue color) and, upon entering cells, is reduced to resorufin (fluorescent form, red color) as a result of cellular metabolic activity. Evaluation was performed by adding 20 μL of alamarBlue and incubating at 26 °C for 24 h. The reducing environment was evaluated after 24 h by absorbance measurement at the Multiskan ascent plate reader (Thermo Fisher Scientific Inc.) at 550 and 630 nm.

A short description of data set [3]: Cytotoxicity test on Vero cells (alamarBlue). The format is cell-based, African green monkey. On the procedure: (§1) Vero cells (kidney of African green monkey epithelial cell line) were cultured at 37 °C in the MEM liquid medium supplemented with 10% FBS (EuroClone SpA), 1% levoglutamine (EuroClone SpA), and 1% penicillin–streptomycin (EuroClone SpA). THP-1 cells (human leukemia monocytic cell line) were cultured at 37 °C in the RPMI 1640 (EuroClone SpA) liquid medium supplemented with 10% FBS (EuroClone SpA), 1% levoglutamine (EuroClone SpA), 1% penicillin–streptomycin, and mercaptoethanol (Gibco) 50 μM.
(§2) The cytotoxicity of the compounds was determined using mammalian kidney epithelial cells (Vero cell line) and human acute monocytic leukemia cell line (THP-1). Cells were seeded (10^5 cells mL^–1) on 96-well plates with the complete MEM medium and incubated with test compounds at 37 °C in a 5% CO2 incubator. After 72 h of incubation, 20 μL of the alamarBlue reagent was added to each well and incubated at 37 °C for 24 h. Reduction of resazurin to resorufin was evaluated after 24 h by absorbance measurement at the Multiskan ascent plate reader (Thermo Fisher Scientific Inc.,) at 550 and 630 nm. […] Each experiment was performed in duplicate.

Data set [4] has as its system intramacrophage amastigotes of L. donovani. As to the kind of experiment: Amastigote growth inhibition assay in infected THP-1 cells (Giemsa, infectivity index). The format is cell-based, Leishmania donovani. To be noted: for IC50: Leishmania donovani, intracellular amastigotes in THP-1, 72 h, read-out: IC50 against amastigotes of L. donovani. On the procedure:
To evaluate the efficacy of the compounds on the intracellular form of L. donovani, human acute monocytic leukemia cell line (THP-1) was infected with L. donovani promastigotes. Cells were harvested and seeded in a 96-well plate (10^5 cells mL^–1) in the complete RPMI 1640 medium, and PMA (0.1 μM, Cayman Chemical Company, Ann Arbor, Michigan, USA) was added for obtaining maturation and cell adherence. Cells were incubated at 37 °C in a 5% CO2 incubator. After 48 h, the medium was replaced with the fresh medium containing stationary-phase promastigotes that were then phagocyted by monocytic cells and transformed into intracellular amastigotes. After 24 h of incubation, newly synthesized compounds were added and the plates were incubated at 37 °C in a 5% CO2 incubator for 72 h. After incubation, wells were washed, fixed, and stained with Giemsa. Staining was detected using a Nikon Eclipse E200 light microscope (Nikon, Tokyo, Japan). The infectivity index (% of infected macrophages × average number of amastigotes per macrophage) was determined by counting at least 100 cells in duplicate cultures.

Data set [5] in a line: Cytotoxicity test on THP-1 cells (alamarBlue). To be noted: human, THP-1 cells (acute monocytic leukemia cell line); CSV supplement; read-out: CC50 against human acute monocytic leukemia cell line (THP-1). The data set is classed as cell-based. On the procedure:
as §1, §2
Cytotoxicity in THP-1 cell line
We performed additional cytotoxicity tests employing THP-1 cell line. We also calculated the
corresponding selectivity indexes, as the ratio between CC50 of THP-1 cell line and IC50 on amastigotes
THP-1 cells than on VERO cells; thus showing a not significant variance of selectivity index.
Table S3. Inhibitory activity of tetrahydropyrans 3 and endoperoxides 2 against amastigotes of L.
donovani, cytotoxicity in human acute monocytic leukemia cell line (THP-1) and selectivity index (SI).
Tetrahydropyran IC50 CC50 Endoperoxide IC50 CC50
a (µM)b (µM)c a (µM)b (µM)c
a Compounds tested as racemates. b IC50 represents the concentration of a compound that causes 50% growth inhibition.
Results represent the mean (± standard deviation, SD) of three independent experiments performed in duplicate. c CC50
represents 50% cytotoxic concentration on THP-1 cells. d Selectivity index (SI) = CC50/IC50. […]

The subject of data set [6] is L. donovani promastigotes. As to the kind of experiment: Promastigote growth inhibition in the presence of an iron chelator (DFO or DFP), isobologram. The format is cell-based, Leishmania donovani. The method, then: At first, we determined IC50 and CC50 values of the iron chelator DFO (187 and >400 μM, respectively). Then, the effect of the iron chelator presence on the bioactivity of the two compounds was studied by coincubating 2a and 3a with DFO at different concentrations. The variation of IC50 of the compounds in relation to the different doses of DFO was determined by the alamarBlue assay (Table 3), and the isobole technique was employed to depict the interactions of 2a and 3a with DFO (Figure 6).
The isobole technique was used for depicting synergistic or antagonistic interaction between the iron chelator and the two compounds on the parasite growth (Figure 6). Combinations are expressed as the sum of the fractional inhibitory concentrations (ΣFIC), and FIC values are defined as synergism (<0.5), antagonism (>4.0), and additivity (no interaction). The strength of synergism (or antagonism) is indicated by the degree of deviation from the line of additivity.
[…]. Each compound was added using a concentration range including the IC50 of each compound. Each experiment was performed in duplicate. The viability of the parasites was determined by the alamarBlue assay. The fractional inhibitory concentration (FIC; FIC = IC50 of the drug in the combination/IC50 of the drug when tested alone) of each compound was calculated and plotted as an isobologram.

The test system of data set [7] is L. donovani promastigotes (MHOM/NP/02/BPK282/0cl4). As to the kind of experiment: Promastigote growth inhibition assay (alamarBlue). To be noted: Leishmania donovani, HOMEM with 10% FBS. The format is cell-based.
The subject of data set [8] is promastigotes of L. donovani. Details: method as in PMID 30878827. As to conditions: in vitro; cited from earlier work.
Data set [9] relates to promastigotes of Leishmania donovani strains. Further details: method as in earlier work. As to conditions: Figure 1, cited from earlier work; for IC50: read-out: IC50 on promastigotes of L. donovani strains.
The test system of another data set is Leishmania promastigotes. Further details: method as in PMID 27867026, PMID 17339374. To be noted: Figure 3; cited from earlier work.
The test system of data set [10] is intracellular amastigotes of L. infantum. Details: method as in PMID 26014947. To be noted: in vitro; cited from earlier work.
The test system of data set [11] is promastigotes of L. infantum. Details: method as in PMID 26014947. As to conditions: in vitro; cited from earlier work.
Where [12] appears, read: Vero CC50 / IC50 on amastigotes.

Several values for one entry are separate records, joined by “and”; a condition that tells them apart may be missing. Equal entries are not always repeated. Where two headings read alike, the source gives them in different places.

With “6-(1,2,6,7-tetraoxaspiro[7.11]nonadec-4-yl) hexan-1-ol [N-251]”, in data set [1], the IC50 is 6.7 µM.
On to `CO[C@]1(C)OOC(c2ccccc2)(c2ccccc2)C[C@@H]1CNCCCn1ccnc1` [2b], for which the IC50 turned out to be 6.3 ± 1.1 µM in data set [2]; 5 ± 1 µM in [4]; 7.5 µM in data set [6] (Leishmania donovani, no DFO, read-out: IC50 against promastigotes, absence of DFO (Table S4)); 1.2 µM in data set [7]. Further, the “Selectivity index (SI) = CC50/IC50” value came to 7.7 in data set [2], 10.5 in [4] (THP-1 CC50 / IC50 on amastigotes) and 9.8 in [4] (setting [12]). Also, the CC50 at 72 h was 49 ± 2.7 µM in data set [3] (chlorocebus sabaeus, Vero cells (kidney epithelial cell line), 72 h, alamarBlue, read-out: CC50 (50% cytotoxic concentration) on Vero cells) and 52.5 µM in data set [5]. In addition, in [6] (synergism <0.5, antagonism >4.0, else additivity), the “Interaction with the iron chelator DFO (isobologram, ΣFIC)” value is “additive effects”.
On to `CCCCC1(CCCC)CC(CNCCCn2ccnc2)C(C)(OC)OO1` (stereo not drawn) [3,4-cis 2a], for which, in data set [8], the IC50 is 5.5 µM.
Regarding `CCCCC1(CCCC)CC(CNCCCn2ccnc2)C(C)(OC)OO1` (stereo not drawn) [3,4-trans 2a], the IC50 in [8] is 4 µM.
In the case of `C[C@@H]1[C@H](O)[C@@H](C)/C=C/C=C/C=C/C=C/C=C/C=C/C=C/[C@H](O[C@@H]2O[C@H](C)[C@@H](O)[C@H](N)[C@@H]2O)C[C@@H]2O[C@](O)(C[C@@H](O)C[C@@H](O)[C@H](O)CC[C@@H](O)C[C@@H](O)CC(=O)O[C@H]1C)C[C@H](O)[C@H]2C(=O)O` [Amphotericin B, reference compound], the IC50 is 0.3 µM in [2], 0.07 µM in data set [4] and 0.03 to 2.8 µM in data set [9]. The “Selectivity index (SI) = CC50/IC50” value in data set [2] amounted to 666.7; in data set [4] (setting [12]) it was 2857.1. Also, the CC50 at 72 h in data set [3] (African green monkey) stood at 200 µM.
Take `C[C@@H]1CC[C@H]2[C@@H](C)C(=O)O[C@@H]3O[C@@]4(C)CC[C@@H]1[C@]32OO4` [Artemisinin, reference compound]: the IC50 in data set [2] is more than 40 µM; in [4], more than 40 µM; with Leishmania promastigotes it was 30.8 µM.
Turning to `COc1ccc(N[C@@]2(C(F)(F)F)O[C@@H]3C[C@@]4(C)C[C@H]5[C@H](C)CC[C@@H]([C@H]2C)[C@@]35OO4)cc1` [BB201], the IC50 in the data set on Leishmania promastigotes is 0.38 to 1.5 µM.
Consider `C=CCO[C@@]1(C(F)(F)F)O[C@@H]2C[C@@]3(C)C[C@H]4[C@H](C)CC[C@@H]([C@H]1C)[C@@]24OO3` [BB241], for which the IC50 in the data set on Leishmania promastigotes is 1.6 to 6.3 µM.
As for `O=C1CCC2(CC1)OOC1(O2)C2CC3CC(C2)CC1C3` (stereo not drawn) [LC50], the IC50 in [10] is 79.8 to 108 µM.
As to `NCC1CC[C@]2(CC1)OO[C@]1(O2)C2CC3CC(C2)CC1C3` (stereo partly drawn) [LC95], the IC50 was 3.5 µM and 3.5 to 9.4 µM in [11]; 79.8 to 108 µM in [10].
As for `CCCCCCCCCCCCCCCCOP(=O)([O-])OCC[N+](C)(C)C` [Miltefosine], the IC50 in data set [9] was 1.9 to 68.1 µM.
`NC[C@@H]1O[C@H](O[C@H]2[C@@H](O)[C@H](O[C@@H]3[C@@H](O)[C@H](N)C[C@H](N)[C@H]3O[C@H]3O[C@H](CO)[C@@H](O)[C@H](O)[C@H]3N)O[C@@H]2CO)[C@H](N)[C@@H](O)[C@@H]1O` [Paromomycin]: in [9], the IC50 is 19.7 to 28.1 µM.
For the compound `O.O.O.O.O.O.O.O.O.O=C([O-])[C@@H]1[O][Sb](=[O])([O][Sb]2(=[O])[O][C@H]([C@H](O)CO)[C@H](O)[C@H](C(=O)[O-])[O]2)[O][C@H]([C@H](O)CO)[C@@H]1O.[Na+].[Na+].[Na+]` (stereo partly drawn) [Sodium stibogluconate], in [9], the “IC50 on promastigotes of L. donovani strains” value was 8.8 to 22.0 µg/mL.
